Source: patent US20260374766A1, “METHODS FOR TREATING CANCER” (Antares Therapeutics, Inc., priority 2022, published 2026)
pIC50, pKd: −log10 of the molar value. Read-outs that look alike come from different tables or passages of the source.

Tests used:
[1] = target: T1, p53 Y220C mutant protein (amino acid residues 94-293) (Homo sapiens, UniProt P04637, Y220C); test: Thermal Shift Assay (TSA), dTM; type: binding; settings: for ΔTm at 100 µM: 100 uM compound; for ΔTm at 10 µM: 10 uM compound
T1 construct: p53 Y220C mutant protein (amino acid residues 94-293)
Method in brief: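 5 μM protein + 10 μM or 100 μM cpd, 3 h, 20 °C; 20 mM HEPES pH7.4, 100 mM NaCl, 0.01% Pluronic F-127, 1% DMSO, Sypro Orange 400-fold dil. Ramp 30→50 °C, 0.03 °C/s. TM by Boltzmann two-state fit.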

H1299 p53 R273H = test: Cell Proliferation Assay (CellTiter-Glo, CTG), H1299 p53 R273H (NClH1299-inducible p53 R273H); type: cell-based; settings: Homo sapiens, NCI-H1299, 120 h, CellTiter-Glo, 5 days
Method in brief: (§1)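 NClH1299 lines stably transduced with Tet-inducible p53 Y220C or R273H, plus NUGC3, were treated with compound for 5 days at 250-500 cells/well. IC50 derived from CellTiter-Glo luminescent signal after 10 min room-temperature incubation.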

H1299 p53 Y220C = test: Cell Proliferation Assay (CellTiter-Glo, CTG), H1299 p53 Y220C (NClH1299-inducible p53 Y220C); type: cell-based; settings: Homo sapiens, NCI-H1299, 120 h, CellTiter-Glo, 5 days
Method in brief: as §1

p53 Y220C = p53 Y220C (Homo sapiens, UniProt P04637, Y220C); test: Luciferase Reporter Assay (Luc), p53 response element, NClH1299 cells with inducible p53 Y220C; type: cell-based; settings: luciferase reporter, NClH1299 inducible p53 Y220C, 6 hour; for AC50: read-out: Luc P53 Y220C AC50
Method in brief: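 Steps: seed 5,000 cells/well; induce mutant p53 with 0.5 ug/mL doxycycline for 24 h; treat with compound 6 h; add equal volume One-Glo, shake 5 min at room temperature; measure luciferase immediately.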

[2] = target: T1, p53 Y220C mutant protein (amino acid residues 94-293); test: Surface Plasmon Resonance (SPR) assay, Kd_kinetic; type: binding; settings: read-out: SPR P53 Y220C KD kinetic
Method in brief: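 Temperature held at 16 or 20 °C during Biacore 8K runs. Buffer: 50 mM Tris, pH 7.5, 100 mM NaCl, 1 mM DTT, 0.01% Brij35, 0.05% Tween-20, 1% DMSO.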

NUGC3 p53 Y220C = test: Cell Proliferation Assay (CellTiter-Glo, CTG), NUGC3 p53 Y220C; type: cell-based; settings: Homo sapiens, NUGC-3, 120 h, CellTiter-Glo, 5 days
Method in brief: as §1

[3] = thermal shift, read-out: TSA P53 Y220C dTM (100 uM)
[4] = 10 uM tool compound as positive control
[5] = p53 Y220C, read-out: TSA P53 Y220C dTM
[6] = NClH1299-inducible p53 R273H cells
[7] = NClH1299-inducible p53 Y220C cells
[8] = thermal shift, read-out: TSA P53 Y220C dTM (10 uM)

With `CN1CC[C@@H](Nc2cccn3c(CC(F)(F)F)c(C#C[C@@H](O)c4ccccc4)nc23)[C@@H](F)C1` [Example 72, (1S)-3-(8-{[(3S,4R)-3-fluoro-1-methylpiperidin-4-yl]amino}-3-(2,2,2-trifluoroethyl)imidazo[1,2-a]pyridin-2-yl)-1-phenylprop-2-yn-1-ol] the ΔTm at 100 µM [1, 3] was 1 to 5 °C, the pIC50 (H1299 p53 R273H; H1299 p53 R273H) was > 5.30 and the pIC50 (H1299 p53 Y220C; H1299 p53 Y220C) was 5.52 to 5.82. The Emax (p53 Y220C; [4]) was < 70%, the AC50 (p53 Y220C) was > 3 µM and the pKd ([2]; SPR, kinetic KD, p53 Y220C) was < 6.00. It also gave a pIC50 (NUGC3 p53 Y220C; NUGC3 p53 Y220C) of 5.82 to 6.12.
`COc1cc(C(=O)N(C)C)ccc1NCC#Cc1nc2c(N[C@@H]3CCN(C)C[C@@H]3F)cccn2c1CC(F)(F)F` [Example 46, 4-{[3-(8-{[(3S,4R)-3-fluoro-1-methylpiperidin-4-yl]amino}-3-(2,2,2-trifluoroethyl)imidazo[1,2-a]pyridin-2-yl)prop-2-yn-1-yl]amino}-3-methoxy-N,N-dimethylbenzamide] was tested, and the ΔTm at 100 µM [1, 3] was ≥ 10 °C, the pIC50 (H1299 p53 R273H; H1299 p53 R273H) was ≤ 5.00 and the pIC50 (H1299 p53 Y220C; H1299 p53 Y220C) was 5.82 to 6.12. For the same compound, the Emax (p53 Y220C; [4]) was 70 to 80%, the AC50 (p53 Y220C) was 1.5 to 3 µM and the pKd ([2]; SPR, kinetic KD, p53 Y220C) was > 8.00. The pIC50 (NUGC3 p53 Y220C; NUGC3 p53 Y220C) was 5.52 to 5.82.
For `CN1CC[C@@H](Nc2cccn3c(CC(F)(F)F)c(C#CCNc4ccc(S(C)(=O)=O)cc4F)nc23)[C@@H](F)C1` [Example 68, (3S,4R)-3-fluoro-N-(2-{3-[(2-fluoro-4-methanesulfonylphenyl)amino]prop-1-yn-1-yl}-3-(2,2,2-trifluoroethyl)imidazo [1,2-a]pyridin-8-yl)-1-methylpiperidin-4-amine], the ΔTm at 100 µM [1, 3] was 5 to 10 °C, the pIC50 (H1299 p53 R273H; H1299 p53 R273H) was ≤ 5.00 and the pIC50 (H1299 p53 Y220C; H1299 p53 Y220C) was 5.52 to 5.82. For the same compound, the Emax (p53 Y220C; [4]) was 70 to 80%, the AC50 (p53 Y220C) was 1.5 to 3 µM and the pKd ([2]; SPR, kinetic KD, p53 Y220C) was 7.00 to 8.00. For the same compound, the pIC50 (NUGC3 p53 Y220C; NUGC3 p53 Y220C) was 5.52 to 5.82.
In the case of `COc1cc(S(C)(=O)=O)ccc1NCC#Cc1cc2c(N[C@@H]3CCN(C)C[C@@H]3F)cccn2c1SC(F)F` [Example 344], the ΔTm at 10 µM [1, 5] was ≥ 10 °C, the pIC50 (H1299 p53 R273H; [6]) was 5.10 to 5.30 and the pIC50 (H1299 p53 Y220C; [7]) was > 6.12. For the same compound, the AC50 (p53 Y220C; AC50) was < 0.75 µM, the Emax (p53 Y220C; Emax) was > 90% and the pKd ([2]; SPR, p53 Y220C) was > 8.00. The pIC50 (NUGC3 p53 Y220C; NUGC3 cells) was > 6.12.
For `CNC(=O)c1ccc(OC)c(NCC#Cc2nn3c(N[C@@H]4C[C@H]5CC[C@H](N5)[C@@H]4F)cccc3c2SC(F)(F)F)c1` [Example 269], the ΔTm at 10 µM [1, 5] was ≥ 10 °C, the ΔTm at 100 µM [1, 5] was 5 to 10 °C and the pIC50 (H1299 p53 R273H; [6]) was > 5.30. The pIC50 (H1299 p53 Y220C; [7]) was > 6.12, the AC50 (p53 Y220C; AC50) was < 0.75 µM and the Emax (p53 Y220C; Emax) was 70 to 80%. The pKd ([2]; SPR, p53 Y220C) was > 8.00 and the pIC50 (NUGC3 p53 Y220C; NUGC3 cells) was > 6.12.
For `COc1ccc(C(N)=O)nc1NCC#Cc1nc2c(N[C@@H]3CCN(C)C[C@@H]3F)cccn2c1SC(F)(F)F` [Example 166], the ΔTm at 10 µM [1, 8] was ≥ 10 °C, the ΔTm at 100 µM [1, 3] was ≥ 10 °C and the pIC50 (H1299 p53 R273H; H1299 p53 R273H) was ≤ 5.00. For the same compound, the pIC50 (H1299 p53 Y220C; H1299 p53 Y220C) was > 6.12, the Emax (p53 Y220C; [4]) was 80 to 90% and the AC50 (p53 Y220C) was < 0.75 µM. The pKd ([2]; SPR, kinetic KD, p53 Y220C) was > 8.00 and the pIC50 (NUGC3 p53 Y220C; NUGC3 p53 Y220C) was > 6.12.
For `CNC(=O)c1ccc(NCC#Cc2cc3c(N[C@@H]4CCN(C)C[C@@H]4F)nccn3c2SC(F)(F)F)c(OC)c1` [Example 155, 4-{[3-(1-{[(3S,4R)-3-fluoro-1-methylpiperidin-4-yl]amino}-6-[(trifluoromethyl)sulfanyl]pyrrolo[1,2-a]pyrazin-7-yl)prop-2-yn-1-yl]amino}-3-methoxy-N-methylbenzamide; formic acid], the ΔTm at 10 µM [1, 8] was ≥ 10 °C, the ΔTm at 100 µM [1, 3] was ≥ 10 °C and the pIC50 (H1299 p53 R273H; H1299 p53 R273H) was 5.00 to 5.10. For the same compound, the pIC50 (H1299 p53 Y220C; H1299 p53 Y220C) was > 6.12, the Emax (p53 Y220C; [4]) was > 90% and the AC50 (p53 Y220C) was < 0.75 µM. For the same compound, the pKd [2] was > 8.00 and the pIC50 (NUGC3 p53 Y220C; NUGC3 p53 Y220C) was > 6.12.
`COc1ccc(C(=O)NC[C@H](C)O)cc1NCC#Cc1cc2c(N[C@@H]3CCN(C)C[C@@H]3F)nccn2c1SC(F)(F)F` [Example 358] was tested, and the ΔTm at 10 µM [1, 5] was ≥ 10 °C, the pIC50 (H1299 p53 R273H; [6]) was ≤ 5.00 and the pIC50 (H1299 p53 Y220C; [7]) was > 6.12. For the same compound, the AC50 (p53 Y220C; AC50) was < 0.75 µM, the Emax (p53 Y220C; Emax) was > 90% and the pKd ([2]; SPR, p53 Y220C) was > 8.00. The pIC50 (NUGC3 p53 Y220C; NUGC3 cells) was > 6.12.
In the case of `COc1cc(S(C)(=O)=O)ccc1NCC#Cc1nc2c(N[C@@H]3CCN(C)C[C@@H]3F)cccn2c1SC(F)(F)F` [Example 82, (3S,4R)-3-fluoro-N-(2-{3-[(4-methanesulfonyl-2-methoxyphenyl)amino]prop-1-yn-1-yl}-3-[(trifluoromethyl)sulfanyl]imidazo[1,2-a]pyridin-8-yl)-1-methylpiperidin-4-amine], the ΔTm at 100 µM [1, 3] was ≥ 10 °C, the pIC50 (H1299 p53 R273H; H1299 p53 R273H) was 5.00 to 5.10 and the pIC50 (H1299 p53 Y220C; H1299 p53 Y220C) was > 6.12. For the same compound, the Emax (p53 Y220C; [4]) was 80 to 90%, the AC50 (p53 Y220C) was < 0.75 µM and the pKd ([2]; SPR, kinetic KD, p53 Y220C) was > 8.00. For the same compound, the pIC50 (NUGC3 p53 Y220C; NUGC3 p53 Y220C) was > 6.12.
